One assay concerns the target BACE1 (Homo sapiens (Human), UniProt P56817). The assay can be described thus: Cellular Aβ-lowering assay. The format is cell-based. To be noted: HEK293 cells stably expressing human APP wt (APP695); Aβ40 in supernatant by ELISA after 18-20 hrs. On the procedure: Cellular Aβ-Lowering Assay: Human HEK293 cells which are stably transfected with a vector expressing a cDNA of the human APP wt gene (APP695) were used to assess the potency of the compounds in a cellular assay. The cells were seeded in 96-well microtiter plates in cell culture medium (Iscove, plus 10% (v/v) fetal bovine serum, glutamine, penicillin/streptomycin) to about 80% confluence and the compounds were added at a 10× concentration in 1/10 volume of medium without FCS containing 8% DMSO (final concentration of DMSO was kept at 0.8% v/v). After 18-20 hrs incubation at 37° C. and 5% CO2 in a humidified incubator the culture supernatant was harvested for the determination of Aβ40 concentrations. […] After blocking of non-specific binding sites with e.g. 1% BSA and washing, the culture supernatants were added in suitable dilutions together with a horseradish peroxidase-coupled Aβ detection antibody (e.g., antibody 4G8, Senetek, Maryland Heights, Mo.) and incubated for 5 to 7 hrs. Subsequently the wells of the microtiter plate were washed extensively with Tris-buffered saline containing 0.05% Tween 20 and the assay was developed with tetramethylbenzidine/H2O2 in citric acid buffer. After stopping the reaction with one volume […] the reaction was measured in an ELISA reader at 450 nm wavelength. The concentrations of Aβ in the culture supernatants were calculated from a standard curve obtained with known amounts of pure Aβ peptide.
Background: An ELISA detects its analyte on a solid surface through an enzyme-linked reagent.

The next assay deals with BACE2 (Rattus norvegicus (Rat), UniProt Q6IE75). Briefly: Assay for BACE inhibition by measuring cellular TMEM27 cleavage. The assay is classed as cell-based. Conditions: INS-TMEM27 (INS1e rat cell line, inducible hTMEM27); shed TMEM27 by ELISA. The source says:
Assay for BACE Inhibition by Measuring Cellular TMEM27 Cleavage:
The assay uses the principle of inhibition of human TMEM27 cleavage by endogenous cellular BACE2 in the Ins1e rat cell line and shedding from the cell surface into the culture medium, followed by detection in an ELISA assay Inhibition of BACE2 prevents the cleavage and shedding in a dose-dependent manner.
The stable cell line “INS-TMEM27” represents an INS1e-derived cell line with inducible expression (using the TetOn system) of full-length hTMEM27 in a doxycycline-dependent manner. The cells are cultured throughout the experiment in RPMI1640+Glutamax (Invitrogen) Penicillin/Streptomycin, 10% Fetal bovine serum, […], […], 100 micrograms/ml G418 and 100 microgram/ml hygromycin and are grown inadherent culture at 37° C. in a standard CO2 cell culture incubator.
INS-TMEM27 cells are seeded in 96-well plates. After 2 days in culture, BACE2 inhibitor is added in a range of concentrations as required by the assay and after a further two hours, doxycycline is added to a final concentration of 500 ng/ml. The cells are incubated for a further 46 hours and the supernatant harvested for detection of shed TMEM27.
An ELISA assay (using a pair of mouse anti-human-TMEM27 antibodies, raised against the extracellular domain of TMEM27) is used for detection of TMEM27 in the culture medium. An EC50 for BACE2 inhibition is calculated using the ELISA readout for each inhibitor concentration with standard curve-fitting software such as XLFit for the Excel spreadsheet program.

Molecules are shown by their SMILES.

BACE2, sequence (Q6IE75 63-514): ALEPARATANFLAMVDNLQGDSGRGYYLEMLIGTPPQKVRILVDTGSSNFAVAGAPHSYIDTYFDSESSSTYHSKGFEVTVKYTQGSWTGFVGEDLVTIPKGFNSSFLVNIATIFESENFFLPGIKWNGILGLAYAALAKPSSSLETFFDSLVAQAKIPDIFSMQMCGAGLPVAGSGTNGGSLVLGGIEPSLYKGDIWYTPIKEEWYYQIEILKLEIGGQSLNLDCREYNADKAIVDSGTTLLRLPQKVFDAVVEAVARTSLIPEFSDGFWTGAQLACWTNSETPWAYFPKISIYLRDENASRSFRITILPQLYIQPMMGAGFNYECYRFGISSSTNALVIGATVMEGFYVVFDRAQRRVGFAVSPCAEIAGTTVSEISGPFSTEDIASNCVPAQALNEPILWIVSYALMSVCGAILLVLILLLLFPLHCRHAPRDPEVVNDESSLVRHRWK
BACE1, sequence (P56817 46-501): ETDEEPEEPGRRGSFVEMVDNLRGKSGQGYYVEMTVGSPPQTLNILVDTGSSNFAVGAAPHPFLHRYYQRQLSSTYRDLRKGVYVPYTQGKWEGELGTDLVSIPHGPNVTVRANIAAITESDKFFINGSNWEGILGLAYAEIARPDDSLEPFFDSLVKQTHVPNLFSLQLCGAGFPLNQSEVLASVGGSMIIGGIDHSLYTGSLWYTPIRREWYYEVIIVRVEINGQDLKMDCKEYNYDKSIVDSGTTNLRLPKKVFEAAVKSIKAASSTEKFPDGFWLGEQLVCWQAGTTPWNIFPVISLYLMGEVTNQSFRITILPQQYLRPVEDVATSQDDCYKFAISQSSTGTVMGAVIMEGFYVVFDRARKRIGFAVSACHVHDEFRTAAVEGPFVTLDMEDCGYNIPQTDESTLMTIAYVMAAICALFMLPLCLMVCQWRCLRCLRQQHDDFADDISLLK

The term IC50 denotes the concentration that gives 50% inhibition. As for `C[C@]1(F)COC(N)=N[C@]1(C)c1cc(NC(=O)c2ncccc2OCC(F)(F)F)ccc1F` [Example 37, 3-(2,2,2-Trifluoro-ethoxy)-pyridine-2-carboxylic acid [3-((4R,5R)-2-amino-5-fluoro-4,5-dimethyl-5,6-dihydro-4H-[1,3]oxazin-4-yl)-4-fluoro-phenyl]-amide], the half-maximal inhibitory concentration (IC50) against BACE1 was found to be 22 nM; at BACE2, 226 nM.

As to `C[C@]1(F)COC(N)=N[C@]1(C)c1cc(NC(=O)c2nn(C(F)F)cc2Cl)ccc1F` [Example 40, 4-Chloro-1-difluoromethyl-1H-pyrazole-3-carboxylic acid [3-((4R,5R)-2-amino-5-fluoro-4,5-dimethyl-5,6-dihydro-4H-[1,3]oxazin-4-yl)-4-fluoro-phenyl]amide], the IC50 on BACE1 was 2 nM; against BACE2, 31 nM.

In the case of `C[C@]1(c2cc(NC(=O)c3ccc(C4CC4)cn3)ccc2F)N=C(N)OC[C@@H]1F` [Example 22, 5-Cyclopropyl-pyridine-2-carboxylic acid [3-((4R,5R)-2-amino-5-fluoro-4-methyl-5,6-dihydro-4H-[1,3]oxazin-4-yl)-4-fluoro-phenyl]-amide], the IC50 is 14 nM against BACE1 and 124 nM on BACE2.

For `C[C@]1(c2cc(NC(=O)c3ncc(C(F)(F)F)cc3Cl)ccc2F)N=C(N)OC[C@@H]1F` [Example 9, 3-Chloro-5-trifluoromethyl-pyridine-2-carboxylic acid [3-((4R,5R)-2-amino-5-fluoro-4-methyl-5,6-dihydro-4H-[1,3]oxazin-4-yl)-4-fluoro-phenyl]-amide], the IC50 at BACE1 was 2 nM; against BACE2, 124 nM.

On to `C[C@]1(c2cc(NC(=O)c3ncc(C(F)(F)F)cc3Cl)ccc2F)N=C(N)OC[C@H]1F` [Example 36, 3-Chloro-5-trifluoromethyl-pyridine-2-carboxylic acid [3-((4R,5S)-2-amino-5-fluoro-4-methyl-5,6-dihydro-4H-[1,3]oxazin-4-yl)-4-fluoro-phenyl]-amide], for which the IC50 at BACE1 came to 140 nM; against BACE2, 4030 nM.

Consider `C[C@]1(c2cc(NC(=O)c3ncc(Cl)cc3Cl)ccc2F)N=C(N)OC[C@@H]1F` [Example 2, 3,5-Dichloro-pyridine-2-carboxylic acid [3-((4R,5R)-2-amino-5-fluoro-4-methyl-5,6-dihydro-4H-[1,3]oxazin-4-yl)-4-fluoro-phenyl]-amide], for which the IC50 was found to be 0.6 nM on BACE1 and 8 nM at BACE2.

With `C[C@]1(F)COC(N)=N[C@]1(C)c1cc(NC(=O)c2ccc(F)cn2)ccc1F` [Example 42, 5-Fluoro-pyridine-2-carboxylic acid [3-((4R,5R)-2-amino-5-fluoro-4,5-dimethyl-5,6-dihydro-4H-[1,3]oxazin-4-yl)-4-fluoro-phenyl]-amide], the half-inhibitory concentration (IC50) turned out to be 11 nM against BACE1 and 74 nM against BACE2.
